Reference: US6933313B2, “Substituted carbazoles as inhibitors of sPLA2” (Eli Lilly and Company, priority 2001, dated 2005)

Target: T1, recombinant human secreted phospholipase A2 (Homo sapiens, UniProt P14555)
T1 sequence (P14555 21-144): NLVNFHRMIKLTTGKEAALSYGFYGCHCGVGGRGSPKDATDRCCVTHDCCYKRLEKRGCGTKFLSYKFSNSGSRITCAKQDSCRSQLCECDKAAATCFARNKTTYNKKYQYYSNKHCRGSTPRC
Assay: Chromogenic assay for inhibitors of recombinant human secreted phospholipase A2 (Assay Example 1)
Type: biochemical
Conditions: diheptanoyl thio-PC substrate, pH 7.5, absorbance at 405 nm, triplicate
Excerpt: The following chromogenic assay procedure was used to identify and evaluate inhibitors of recombinant human secreted phospholipase A2. The assay described herein has been adapted for high volume screening using 96 well microtiter plates. A general description of this assay method is found in the article, “Analysis of Human Synovial Fluid Phospholipase A2 on Short Chain Phosphatidylcholine-Mixed Micelles: Development of a Spectrophotometric Assay Suitable for a Microtiterplate Reader”, by Laure J. Reynolds, Lori L. Hughes, and Edward A Dennis, Analytical Biochemistry, 204, pp. 190-197, 1992 (the disclosure of which is incorporated herein by reference):
REACTION BUFFER— • CaCl2·2H2O (1.47 g/L) • KCl (7.455 g/L) • Bovine Serum Albumin (fatty acid free) (1 g/L)(Sigma A-7030, product of Sigma Chemical Co., St. Louis Mo., USA) • TRIS HCl (3.94 g/L) • TRIS=(tris(hydroxymethyl)aminomethane) pH 7.5 (adjust with NaOH)
ENZYME BUFFER— • 0.05 NaOAc·3H2O, pH 4.5 • 0.2 NaCl • Adjust pH to 4.5 with acetic acid
DTNB— • 5,5′-dithiobis-2-nitrobenzoic acid
RACEMIC DIHEPTANOYL THIO—PC • racemic 1,2-bis(heptanoylthio)-1,2-dideoxy-sn-glycero-3-phosphorylcholine • TRITON X-100 prepare at 6.249 mg/ml in reaction buffer to equal […] • TRITON X-100 is a polyoxy ethylene non-ionic detergent supplied by Pierce Chemical Company, 3747 N. Meridian Road, Rockford, Ill. 61101.
REACTION MIXTURE— • A measured volume of racemic dipheptanoyl thio PC supplied in chloroform at a concentration of 100 mg/ml is taken to dryness and redissolved in 10 millimolar TRITON X-100 nonionic detergent aqueous solution. Reaction Buffer is added to the solution, then DTNB to give the Reaction Mixture.
The reaction mixture thus obtained contains 1 mM diheptanoly thio-PC substrate, 0.29 mm TRITON X-100 detergent, and 0.12 mm DTMB in a buffered aqueous solution at pH 7.5.
• 1. Add 0.2 ml reaction mixture to all wells; • 2. Add 10 ul test compound (or solvent blank) to appropriate wells, mix 20 seconds; • 3. Add 50 nanograms of sPLA2 (10 microliters) to appropriate wells; • 4. Incubate plate at 40° C. for 30 minutes; • 5. Read absorbance of wells at 405 nanometers with an automatic plate reader.
All compounds were tested in triplicate. Typically, compounds were tested at a final concentration of 5 ug/ml. […] Lack of color development at 405 nanometers evidenced inhibition. Compounds initially found to be active were reassayed to confirm their activity and, if sufficiently active, IC50 values were determined. […] In all cases, % inhibition measured at 405 nanometers generated by enzyme reactions containing inhibitors relative to the uninhibited control reactions was determined. Each sample was titrated in triplicate and result values were averaged for plotting and calculation of IC50 values. IC50 were determined by plotting log concentration versus inhibition values in the range from 10-90% inhibition.

Compound | IC50 [nM]
NC(=O)c1cccc2c1c1c(OCC(=O)NOCc3ccccc3)cc(-c3cccs3)cc1n2Cc1ccccc1 [Example 7, [[5-Carbamoyl-9-(phenylmethyl)-2-(thien-2-yl)carbazol-4-yl]oxy]-N-[(phenylmethyl)oxy]acetamide] | 29
NC(=O)c1cccc2c1c1c(OCC(=O)NO)cccc1n2Cc1ccccc1 [Example 1, [[5-Carbamoyl-9-(phenylmethyl)carbazol-4-yl]oxy]-N-(hydroxy)acetamide] | 18.3
CCONC(=O)COc1cccc2c1c1c(C(N)=O)cccc1n2Cc1ccccc1 [Example 3, [[5-Carbamoyl-9-(phenylmethyl)carbazol-4-yl]oxy]-N-(ethoxy)acetamide] | 19.3
NC(=O)c1cccc2c1c1c(OCC(=O)NOCc3ccccc3)cccc1n2Cc1ccccc1 [Example 4, [[5-Carbamoyl-9-(phenylmethyl)carbazol-4-yl]oxy]-N-[(phenylmethyl)oxy]acetamide] | 17
CONC(=O)COc1cccc2c1c1c(C(N)=O)cccc1n2Cc1ccccc1 [Example 2, [[5-Carbamoyl-9-(phenylmethyl)carbazol-4-yl]oxy]-N-(methoxy)acetamide] | 18.7
CON(C)C(=O)COc1cccc2c1c1c(C(N)=O)cccc1n2Cc1ccccc1 [Example 5, [[5-Carbamoyl-9-(phenylmethyl)carbazol-4-yl]oxy]-N-(methoxy)-N-(methyl)acetamide] | 42.5
